According to patent EP1028734B1, “USE OF SPECIFIC STEADY-STATE R-TYPE CALCIUM CHANNEL BLOCKERS” (priority 1997, dated 1999):
Entries after “also recorded” stand apart in the source; their conditions may differ.

Legend:
[1] = tested on: TTX-sensitive fast Na^+ current; assay: whole-cell voltage clamp, TTX-sensitive fast Na+ current in single heart cell (MV8608); assay type: cell-based; conditions: 10^-11M to 10^-7M, n=5
Experimental: (§1) Single cells of different types in culture were prepared from biopsies of human, chick and rabbit. Known and accepted methods for the isolation of fast Na^+ current, T, L and R-type Ca^2+ channels as well as delayed outward K^+ current were used (Bkaily 1994, supra).
(§2) The compounds to be tested are added to the appropriate extracellular solution after recording a stable ionic current or normal steady-state level of [Ca]n and [Ca]n The effect of different concentrations of compounds are tested on the different type of current and [Ca]i of the different cell types. The effect of each concentration of the compounds in function of the time of exposure are then determined. Once the steady-state effect is reached, the second concentration is added, etc.
In one series of experiments (n=5), the effect of different concentrations of MV8608 (10^-11M to 10^-7M) on the TTX-sensitive fast Na^+ current were tested using the whole-cell voltage clamp technique and experimental conditions reported elsewhere (Bkaily et al., 1988, supra; 1993, supra).

[2] = tested on: T-type Ca^2+ current; assay: whole-cell voltage clamp, T-type Ca2+ current in heart cells; assay type: cell-based; conditions: 10^-9M to 10^-7M, n=7
Experimental: as §1, §2
In another series of experiments (n=7), the effect of different concentrations of MV8608 were tested on the T-type Ca^2+ current (lCa) using the whole-cell voltage clamp technique and classical experimental conditions described elsewhere by the inventors (Bkaily G. et al., 1991, supra; 1992, supra; 1993, supra). […] As it can be seen in that figure, the inset effect of MV8608 in T-type ICa is immediate.

[3] = tested on: R-type Ca^2+ channel; assay: Fura-2 total [Ca]i measurement, sustained increase of [Ca]i via stimulation of R-type Ca2+ channels; assay type: cell-based, chick, human, rabbit
Description: This sustained increase of Ca^2+ induced by depolarization of the cell membrane or hormones such as PAF, ET-1 and bradykinin is due to the increase of Ca^2+ influx through the R-type Ca^2+ channels at the sarcolemmal membrane and/or the nuclear membrane (Bkaily G., 1994, supra; 1996, supra; 1997a-d, supra). Using Ca^2+ fluorescence probes Fura-2 or Fluo-3 and 2 and three-dimension Ca^2+ imaging techniques (Bkaily G., 1994, supra; 1996, supra; 1997a-d, supra), the effect of hormones and drugs could be easily tested. These two methods are used with single cells of different types as described above. […]
Using Fura-2 [Ca]i measurement technique, in one series of experiments we tested the effect of MV8612 (10^-9M) on the stimulation of R-type Ca^2+-induced sustained increase of [Ca]i by sustained depolarization (Figures 26 and 27), PAF (10^-9M, Figure 34) and ET-1 (Figures 33 and 34).

[4] = tested on: R-type Ca^2+ channel; assay: confocal Fluo-3 3-dimension measurement of cytosolic [Ca]c and nuclear [Ca]n; assay type: cell-based, chick, human
[5] = tested on: human lymphocyte; assay: human lymphocyte proliferation in vitro; assay type: cell-based; conditions: MV 8612, MV 8608 14.5 to 116 M
Experimental: In a separate series of experiments, compounds MV 8612 and MV 8608 were tested to analyze whether they interfered with human lymphocyte proliferation "in vitro". These experiments were carried out as reported previously (Moraes et al., 1996, Eur. J. Pharmacol. 312:333-339).

[6] = writhe responses in mice (acetic acid, acetylcholine, kaolin); assay type: in vivo; conditions: 2.7 to 27 mol/kg, i.p.
Description: The antinociceptive actions of compound MV 8612 and MV 8608 were investigated in different models of nociception in mice as reported previously (Vaz et al., 1996, J. Pharmacol. Exp. Ther. 278:304-312).

[7] = tested on: rat uterus; conditions: Calixto et al., 1987; cited from earlier work

(15R, 16R, 20S)-14, 16:15,20:16,21-triepoxi-15,16-seco 14β, 17α-pregn-5-ene-3β, 15-diol [MV8608]
effect on the TTX-sensitive fast Na^+ current [1]: no effect
T-type ICa amplitude [2]: no effect; also recorded: relative weak depressing effect
sustained increase of [Ca]i induced by 10^-7M PAF ([3]; 10^-6M of compound, human aortic VSM cell line (Figure 23)): able to block
sustained increase of [Ca]i induced by 10^-7M PAF ([3]; 10^-9M of compound): failed to significantly decrease
sustained increase of [Ca]i induced by sustained depolarization, ET-1 (10^-9M), PAF (10^-9M) or BK (10^-6M) ([3]; 10^-9M of compound): completely blocked
time within which the block occurred ([3]; 10^-9M of compound): 4 to 5 min
basal sustained increase of [Ca]i ([3]; 10^-9M, freshly isolated human aortic endothelial cells, Figure 22): decrease
blockade of the R-type Ca^2+ channel across cell types ([3]; incl. MG63, FAOS-2, atherosclerotic human VSM cells, endothelial cells, T-lymphocytes, platelets (not shown), AOSMC-9): blocked the R-type Ca^2+ channel in all cell types used
sustained increase of [Ca]c and [Ca]n induced with high concentration of PAF (10^-7M) ([4]; 10^-6M of compound, back to the control level, Figure 29B): significantly decrease
cytosolic and nuclear Ca^2+ sustained overload induced by 30mM KCl and PAF ([4]; 10^-7M of compound, nifedipine present): blocked both the cytosolic and nuclear Ca^2+ sustained overload
prevention of stimulation of the R-type Ca^2+ channel by sustained depolarization ([4]; 10^-8 M and 10^-7 M, dose-dependent): prevented
prevention of high PAF (10^-7 M) action ([4]; 10^-9M of compound): succeeded in preventing
sustained depolarization induced sustained increase of [Ca]c and [Ca]n ([4]; heart cells, Figure 29 panel A): blocked completely
human lymphocyte proliferation [5]: graded inhibition
antinociceptive action in the same model of pain (writhing) [6]: only partial or even no antinociceptive action
contraction of rat uterus induced by BK [7]: selective in its ability to inhibit
